Assay results reported in ChEMBL document CHEMBL5120875, “Discovery of diarylheptanoids that activate α7 nAchR-JAK2-STAT3 signaling in macrophages with anti-inflammatory activity in vitro and in vivo” (Bioorg Med Chem, 2022).
pIC50: −log10 of the molar value. The source made the active and inactive calls. The calls are words filed in the database; no cut-off is given here.

Assays:
RAW264.7 [1] = test: Inhibition of LPS-induced NO production in mouse RAW264.7 cells at 5 uM preincubated with compound for 2 hrs followed by LPS stimulation for 24 hrs by Griess reagent based assay relative to control; assay type: functional; details: time 26 hrs
RAW264.7 [2] = test: Cytotoxicity against mouse RAW264.7 cells assessed as effect on cell viability at 5 uM incubated for 24 hrs by alamar blue reagent based fluorescence assay; assay type: toxicity; details: raw264.7, 24 h
RAW264.7 [3] = test: Inhibition of LPS-induced NO production in mouse RAW264.7 cells preincubated with compound for 2 hrs followed by LPS stimulation for 24 hrs by Griess reagent based assay; assay type: functional, cell-based
RAW264.7 [4] = test: Antiinflammatory activity in LPS-induced mouse RAW264.7 cells assessed as enhancement of STAT3 phosphorylation at 20 uM pretreated with compound for 2 hrs followed by LPS-stimulation and measured after 30 mins by Western blot analysis; assay type: functional, cell-based; details: time 2.5 hrs
RAW264.7 [5] = test: Antiinflammatory activity in LPS-induced mouse RAW264.7 cells assessed as enhancement of STAT3 phosphorylation at […] pretreated with compound for 2 hrs followed by LPS-stimulation and measured after 30 mins by Western blot analysis; assay type: functional, cell-based; details: time 2.5 hrs
RAW264.7 [6] = test: Antiinflammatory activity in LPS-induced mouse RAW264.7 cells assessed as enhancement of JAK2 phosphorylation at […] pretreated with compound for 2 hrs followed by LPS-stimulation and measured after 30 mins by Western blot analysis; assay type: functional, cell-based; details: time 2.5 hrs
RAW264.7 [7] = test: Antiinflammatory activity in LPS-induced mouse RAW264.7 cells assessed as enhancement of JAK2 phosphorylation at 20 uM pretreated with compound for 2 hrs followed by LPS-stimulation and measured after 30 mins by Western blot analysis; assay type: functional, cell-based; details: time 2.5 hrs

Row | Compound | inhibition at 5 µM (RAW264.7 [1]) [%] | Activity (RAW264.7 [2]) | further results
1 | COc1cc(CC[C@@H](O)CC/C=C/c2ccccc2)ccc1O | 47.9 | Non-Toxic | –
2 | Oc1ccc(CCCC[C@H](O)CCc2ccccc2)cc1 | 23.9 | Non-Toxic | –
3 | O=C(/C=C/C=C/c1ccccc1)CCc1ccccc1 | 52.8 | Non-Toxic | –
4 | O=C(CCCCc1ccccc1)CCc1ccccc1 | 38.9 | Non-Toxic | –
5 | COc1ccc(CCCCC(=O)CCc2cccc(O)c2)c(OC)c1 | 2.74 | Non-Toxic | –
6 | O=C(/C=C/C=C/c1ccccc1)CCc1ccc(O)cc1 | 60.4 | Non-Toxic | –
7 | Oc1ccc(CC[C@@H](O)CC/C=C/c2ccccc2)cc1O | 34.7 | Non-Toxic | –
8 | O[C@@H](/C=C/C=C/c1ccccc1)CCc1ccccc1 | 4.61 | Non-Toxic | –
9 | O/N=C(/CC/C=C/c1ccccc1)CCc1ccccc1 | 39.4 | Non-Toxic | –
10 | COc1ccc(/C=C/C(=O)/C=C/C=C/c2cccc(O)c2)cc1 | 85.8 | Non-Toxic | pIC50 (RAW264.7 [3]): 5.91
11 | O[C@@H](CC/C=C/c1ccccc1)CCc1ccccc1 | -18.3 | Non-Toxic | –
12 | COc1ccc(/C=C2\CCCN=C2c2cccnc2)c(OC)c1 | – | – | Activity (RAW264.7 [4]): Active; Activity (RAW264.7 [5]): Active; Activity (RAW264.7 [6]): Active; Activity (RAW264.7 [7]): Active
13 | COc1ccc(CCCCC(=O)CCc2ccc(OC)c(O)c2)c(OC)c1 | 16.6 | Non-Toxic | –
14 | COc1ccc(CCC(/C=C/C=C/c2ccccc2)OC)cc1O (stereo not drawn) | 71.1 | Non-Toxic | –
15 | O=C(CC/C=C/c1ccccc1)CCc1ccc(O)cc1 | 46.1 | Non-Toxic | –
16 | OC(CCc1ccccc1)CC(O)CCc1ccccc1 (stereo not drawn) | 23.5 | Non-Toxic | –
17 | O=C(CCc1ccccc1)C[C@@H](O)CCc1ccccc1 | 14.7 | Non-Toxic | –
18 | C(=C\C=C\c1ccccc1)/C=C/Cc1ccccc1 | 124 | Non-Toxic | pIC50 (RAW264.7 [3]): 6.08
19 | COc1cccc(/C=C/C(=O)/C=C/C=C/c2cccc(O)c2)c1 | 84.3 | Non-Toxic | pIC50 (RAW264.7 [3]): 6.09
20 | O=C(CCc1ccccc1)C[C@@H](O)/C=C/c1ccccc1 | 11 | Non-Toxic | –
21 | COc1ccc(CCC(=O)CCCCc2cccc(O)c2)cc1O | 8.39 | Non-Toxic | –
22 | CC(=O)OCC[N+](C)(C)C | – | – | Activity (RAW264.7 [4]): Active; Activity (RAW264.7 [5]): Active; Activity (RAW264.7 [6]): Active; Activity (RAW264.7 [7]): Active
23 | O=C(CCCCc1ccccc1)CCc1ccc(O)cc1 | 68.3 | Non-Toxic | –
24 | O=C(/C=C/C=C/c1cccc(O)c1)/C=C/c1cccc(O)c1 | 95.9 | Non-Toxic | pIC50 (RAW264.7 [3]): 6.24
25 | CC(=O)Oc1ccc(CCC(=O)CCCCc2ccccc2)cc1OC(C)=O | 128 | Non-Toxic | pIC50 (RAW264.7 [3]): 6.43

Row | Compound | inhibition at 5 µM (RAW264.7 [1]) [%] | Activity (RAW264.7 [2]) | further results
26 | O=C(CC/C=C/c1ccccc1)CCc1ccccc1 | -8.52 | Non-Toxic | –
27 | COC(/C=C/C=C/c1ccccc1)CCc1ccc(O)cc1 (stereo not drawn) | 66.3 | Non-Toxic | –
28 | CC(=O)Oc1ccc(CC[C@@H](O)CC/C=C/c2ccccc2)cc1OC(C)=O | 121 | Non-Toxic | pIC50 (RAW264.7 [3]): 5.79
29 | CC(=O)Oc1ccc(CCC(=O)CCCCc2ccccc2)cc1 | 45.2 | Non-Toxic | –
30 | COc1ccc(CCC(=O)CC/C=C/c2ccccc2)cc1 | -17.2 | Non-Toxic | –
31 | COc1ccc(/C=C/C=C/C(=O)/C=C/c2cccc(O)c2)c(OC)c1 | 82.3 | Non-Toxic | pIC50 (RAW264.7 [3]): 6.01
32 | COc1ccc(CCC(=O)CCCCc2cccc(O)c2)cc1 | 21.4 | Non-Toxic | –
33 | COc1ccc(CCCCC(O)CCc2cccc(O)c2)c(OC)c1 (stereo not drawn) | -14.5 | Non-Toxic | –
34 | O[C@@H](CCCCc1ccccc1)CCc1ccccc1 | 40.1 | Non-Toxic | –
35 | COc1ccc(OC)c(CCCCC(O)CCc2ccc(OC)c(O)c2)c1 (stereo not drawn) | 36.2 | Non-Toxic | –
36 | Oc1ccc(CC[C@@H](O)CC/C=C/c2ccccc2)cc1 | 20.4 | Non-Toxic | –
37 | COc1cc(/C=C/C(=O)CC(=O)/C=C/c2ccc(O)c(OC)c2)ccc1O [CURCUMIN] | 74 | Non-Toxic | pIC50 (RAW264.7 [3]): 5.72
38 | CC(=O)Oc1ccc(CC[C@@H](O)CCCCc2ccccc2)cc1OC(C)=O | 99.2 | Non-Toxic | pIC50 (RAW264.7 [3]): 6.48
39 | COc1cc(CCC(O)/C=C/C=C/c2ccccc2)ccc1O (stereo not drawn) | 35.3 | Non-Toxic | –
40 | COc1cccc(/C=C/C=C/C(=O)/C=C/c2cccc(O)c2)c1 | 92.3 | Non-Toxic | pIC50 (RAW264.7 [3]): 6.39
41 | CC(=O)Oc1ccc(CCC(=O)CC/C=C/c2ccccc2)cc1 | 22.2 | Non-Toxic | –
42 | Oc1ccc(CCC(O)/C=C/C=C/c2ccccc2)cc1O (single isomer, unassigned) | 12.3 | Non-Toxic | –
43 | COc1ccc(OC)c(/C=C/C=C/C(=O)/C=C/c2ccc(OC)c(O)c2)c1 | 101 | Non-Toxic | pIC50 (RAW264.7 [3]): 6.21
44 | COc1ccc(OC)c(CCCCC(=O)CCc2ccc(OC)c(O)c2)c1 | 39.4 | Non-Toxic | –
45 | Oc1ccc(CCC(O)CC(O)CCc2ccccc2)cc1 (stereo not drawn) | 20.5 | Non-Toxic | –
46 | Oc1ccc(CC[C@@H](O)CCCCc2ccccc2)cc1O | 54 | Non-Toxic | –
47 | COc1cc(CCC(=O)CC/C=C/c2ccccc2)ccc1O | 52.2 | Non-Toxic | –
48 | O[C@@H](CC/C=C/c1ccccc1)CCc1ccc(OCc2ccccc2)cc1 | -15.7 | Non-Toxic | –
49 | COc1ccc(CCCCC(O)CCc2ccc(OC)c(O)c2)c(OC)c1 (stereo not drawn) | -2.9 | Non-Toxic | –
